Measurements taken from patent US12097184B2, “Formulations of psilocin that have enhanced stability” (priority 2021, dated 2024).
Marks after values point to notes of the source that are not given here.

Tests used:
[1] = Salt screen using solutions in ethanol, appearance/colour on storage; details: light-protected; for Result at 6 days: solvent removed, stored at RT under Ar, appearance after addition of EtOH; for Results at 18 h: ethanol solution, storage overnight at RT, Ar
[2] = cited from earlier work
[3] = PK evaluation of psilocin and psilocybin after IV and PO administration in rats; assay type: in vivo, CD rats; details: for PK values, including Cmax and AUC and Cl: IV administration; for PK values, including Cmax and AUC and Cl / PK values, including tmax, t1/2, AUC, and bioavailability: psilocin versus psilocybin; for PK values, including tmax, t1/2, AUC, and bioavailability: PO administration
Description: PK Evaluation of Psilocin and Psilocybin after IV and PO Administration in Rats
(§1) The study was conducted in male/female CD rats. Test articles were formulated fresh in PBS. Psilocin and Psilocybin were administered IV and PO. Plasma samples were analyzed for psilocin and psilocybin (group 2).
(§2) FIGS. 2A-2C show PK characteristics of psilocin and psilocybin after IV dosing. FIGS. 3A-3B show PK characteristics of psilocin and psilocybin after PO dosing. FIGS. 4A-4B show psilocin and psilocybin after IV and PO dose.

[4] = Analytical characterization of dosing solutions used in the PK study; assay type: physicochemical; details: after 2 hours on the bench at room temperature, PBS, depending on the concentration
Description: as §1, §2
After IV administration, psilocybin is detectable in plasma for 15 minutes. PO administration of psilocin and psilocybin results in similar PK values, including tmax, t1/2, AUC, and bioavailability. […] Low stability of psilocin in aqueous solutions could be a contributing factor to observed differences. […] Stabilization of psilocin provides viable, stable formulations and lower variability of dosing solutions, resulting in a better PK, such as compared to psilocybin.

[5] = protected from light, over 14 days; cited from earlier work
[6] = HPLC solution stability and stress conditions, free base versus tartrate salt
[7] = after IV administration of psilocybin; cited from earlier work
intestinal epithelia = details: cited from earlier work
[8] = Dynamic vapor sorption/desorption (DVS) analysis; assay type: physicochemical
Description: The weight versus time and percent weight change versus percent relative humidity (RH) curves from the DVS analysis of psilocin tartrate lot 16782-15C is presented in FIGS. 13 and 14, respectively.
DVS analysis was carried out using a TA Instruments Q5000 Dynamic Vapor Sorption analyzer. The instrument was calibrated with standard weights and a sodium bromide standard for humidity. Approximately 12 mg of the powder sample was loaded into a metal-coated quartz pan for analysis. The sample was analyzed at 25° C. after being equilibrated to […] in 10% RH steps from 5 to 95% RH (adsorption cycle) and from 95 to 5% RH (desorption cycle). The movement from one step to the next occurred either after satisfying the equilibrium criterion of 0.01% weight change in 5 minutes or, if the equilibrium criterion was not met, after 90 minutes. The percent weight change values were calculated using Microsoft Excel® 2016.

[9] = Analytical characterization of a psilocin tartrate sample (solid state); assay type: physicochemical; details: OM, XRPD, DSC, TGA, DVS
From the text: One sample of psilocin tartrate (lot 16782-15C) was submitted for optical microscopy (OM), X-ray powder diffraction (XRPD), differential scanning calorimetry (DSC), thermogravimetric analysis (TGA), dynamic vapor sorption/desorption (DVS), and ^1H NMR spectroscopy.

Exposure of HBr1 to AAC = assay type: physicochemical; details: AAC for two days
From the text: HBr1 was unstable upon exposure to AAC for two days and became deliquescent.

Adipic
Result at 6 days [1]: ↑C

CN(C)CCc1c[nH]c2cccc(O[C@@H]3O[C@H](C(=O)O)[C@@H](O)[C@H](O)[C@H]3O)c12 [psilocin glucuronide]
short-term stability compared with psilocin ([2]; one week, whole blood at room temperature and deep frozen samples): better than that of psilocin | long-term stability compared with psilocin ([2]; six months, deep frozen serum and urine samples): greater long-term stability

CN(C)CCc1c[nH]c2cccc(O)c12 [psilocin, 4-hydroxy-N,N-dimethyltryptamine]
PK values, including Cmax and AUC and Cl [3]: almost identical | PK values, including tmax, t1/2, AUC, and bioavailability [3]: similar | Cmax ([3]; both sexes, CD, rat, PO administration of psilocin, plasma psilocin, read-out: Measured Cmax): 153 ng/mL | degradation of dosing solutions [4]: 30%-70% | peak loss [5]: 50% | psilocin lost ([2]; biological samples with addition of 25 mM ascorbic acid): greater than 5% | stability under a variety of stress conditions ([6]; FIG. 20): limited stability

CN(C)CCc1c[nH]c2cccc(OP(=O)(O)O)c12 [psilocybin, 4-phosphoryloxy-N, N-dimethyltryptamine, reference compound]
PK values, including Cmax and AUC and Cl [3]: almost identical | PK values, including tmax, t1/2, AUC, and bioavailability [3]: similar | time psilocybin is detectable in plasma ([3]; after IV administration): 15 min | inter-individual variability of psilocin concentrations [7]: over 3 fold | permeability (intestinal epithelia): not permeable

Mandelic
Results at 18 h [1]: 0

O=C(O)CC(=O)O [Malonic]
Results at 18 h [1]: F ^c | Result at 6 days [1]: ↑C

O=C(O)CCC(=O)O [Succinic]
Results at 18 h [1]: F ^c | Result at 6 days [1]: ↑C

Fumaric
Results at 18 h [1]: F ^c

Oxalic
Results at 18 h [1]: 0

psilocin tartrate
hygroscopicity [8]: moderately hygroscopic | wt. loss upon equilibration at 5% RH ([8]; 25° C.): 0.12% wt. loss upon equilibration at 5% RH | wt. gain from 5 to 95% RH ([8]; 25° C., adsorption cycle): 4.64% wt. gain from 5 to 95% RH | wt. loss from 95 to 5% RH ([8]; 25° C., desorption cycle): 4.67% wt. loss from 95 to 5% RH | solid-state stability [9]: stable crystalline solid | stability in solution compared to the free base ([6]; HPLC, FIG. 21): improved stability

Maleic
Results at 18 h [1]: 0 | Result at 6 days [1]: ↑C

Br.CN(C)CCc1c[nH]c2cccc(O)c12 [HBr1]
stability upon exposure to AAC (Exposure of HBr1 to AAC): unstable

L-Tartaric
Results at 18 h [1]: 0 ^d

O=C(O)c1ccccc1O [Salicylic]
Results at 18 h [1]: 0 | Result at 6 days [1]: ↑C

O=C1O[C@H]([C@@H](O)CO)C(O)=C1O [Ascorbic]
Results at 18 h [1]: 0 | Result at 6 days [1]: C + solid
